ChEMBL document CHEMBL1147305, “Inhibition of protein-tyrosine kinase activity by flavanoids and related compounds” (J Nat Prod, 1989)
≈ marks a conversion by molar mass, not a printed value. Calls of active or inactive are those of the source. The rule behind the calls is not given here.

Species on record: Bos taurus
Test: Inhibition of bovine thymocytes protein tyrosine kinase assessed as angiotensin 1 phosphorylation

| Structure (SMILES) | ID50 [mg/L] | Activity |
| --- | --- | --- |
| O=C1C[C@@H](c2ccc(O)cc2)Oc2cc(O)cc(O)c21 | 80 (≈ 294 µM) | – |
| COc1ccc(-c2oc3cc(OC)cc(O)c3c(=O)c2OC)cc1 | > 500 | – |
| O=C1c2c(O)cc(O)cc2O[C@H](c2ccc(O)c(O)c2)[C@H]1O | 270 (≈ 887 µM) | – |
| COc1ccc(-c2cc(=O)c3c(O)c(OC)c(O)c(OC)c3o2)cc1 | 48 (≈ 139 µM) | – |
| O=c1c(-c2ccc(O)cc2)coc2cc(O)c(O)cc12 | > 500 | – |
| COc1cc(/C=C/C(=O)O)ccc1O | 350 (≈ 1800 µM) | – |
| O=c1cc(-c2ccccc2)oc2ccc3ccccc3c12 | – | inactive |
| O=C(O)/C=C/c1ccc(O)cc1 | 450 (≈ 2740 µM) | – |
| O=c1cc(-c2ccc(O)cc2)oc2cc(O)cc(O)c12 | 90 (≈ 333 µM) | – |
| COc1ccc(-c2oc3cc(O)cc(O)c3c(=O)c2OC)cc1 | > 500 | – |
| COc1ccc(-c2coc3cc(O)cc(O)c3c2=O)cc1 | > 500 | – |
| O=c1c(O)c(-c2cc(O)c(O)c(O)c2)oc2cc(O)cc(O)c12 | 11 (≈ 34.6 µM) | – |
| O=c1c(O)c(-c2ccc(O)c(O)c2)oc2cc(O)cc(O)c12 | 11 (≈ 36.4 µM) | – |
| O=C1CC(c2ccccc2)Oc2cc(O)ccc21 (stereo not drawn) | > 500 | – |
| C[C@H]1O[C@@H](Oc2c(-c3cc(O)c(O)c(O)c3)oc3cc(O)cc(O)c3c2=O)[C@@H](O)[C@@H](O)[C@@H]1O | > 500 | – |
| O=C1C[C@@H](c2ccccc2)Oc2cc(O)cc(O)c21 | > 500 | – |
| O=C1c2ccc(O)cc2O[C@H](c2ccc(O)c(O)c2)[C@H]1O | > 500 | – |
| COc1ccc(-c2cc(=O)c3c(O)cc(OC)cc3o2)cc1 | > 500 | – |
| O=c1c(-c2ccc(O)cc2)coc2cc(O)cc(O)c12 | > 500 | – |
| O=c1c(O)c(-c2cc(O)c(O)c(O)c2)oc2cc(O)ccc12 | 7 (≈ 23.2 µM) | – |
| O=c1c(O)c(-c2ccc(O)c(O)c2)oc2cc(O)ccc12 | 35 (≈ 122 µM) | – |
| COc1ccc(-c2cc(=O)c3c(O)cc(O)cc3o2)cc1 | 300 (≈ 1060 µM) | – |
| COc1cc(C(=O)O)cc(OC)c1O | > 500 | – |
